Experimental data published in patent US20140363530A1, “COMPOSITION COMPRISING THE EXTRACT OF PINE TREE LEAF OR THE COMPOUNDS ISOLATED THEREFROM FOR THE PREVENTION AND TREATMENT OF CANCER DISEASE BY INHIBITING HPV VIRUS AND THE USES THEREBY” (priority 2012, published 2014).
Converted amounts (≈) assume the structure as drawn.

Experiments:
[1] = tested on: MES-SA (human uterine carcinoma); test: SRB cytotoxicity test, MES-SA; format: cell-based; conditions: Homo sapiens, MES-SA, 48 h, read-out: Cytotoxicity IC50, MES-SA
Method: (§1) To determine the cytotoxicity against human tumor cell line of the test samples prepared in Examples, following sulforhodamin B (SRB) bioassy test was performed according to the method disclosed in the literature (Skehan, P., et al., J. Natl. Cancer Inst., 82, 1990, 1107-1112).
(§2) Various human tumor cell lines, i.e., A-549 (human adenocarcinoma of lung, NCI), SK-OV-3 (human ovarian tumor, NCI), SK-MEL-2 (human malignant melanoma, NCI), HCT15 (human colon adenocarcinoma, NCI), MES-SA (human uterine carcinoma, NCI) and MES-SA/DX5 (multidrug resistant carcinoma subline of MES-SA, NCI) were used in the test.
(§3) The subcultured cell lines were detached from the surface of wall using by trypsin-EDTA solution and adjusted to various concentration of cell lines, i.e., 5×10^3 cells/well (A-549, HCT15), 1×10^4 cells/well (SK-MEL-2), 5×10^3 cells/well (SK-OV-3) in 96-well flat bottom microplate. The inoculated cell lines were incubated in CO2 incubator (MCO-20AIC, SANYO Electric Co., LTd.) to be attached on the bottom of incubator and the culture media was removed with aspirator. 6 logarithmic concentrations of the diluted test samples were added to each well containing cell line at 100 μl/well in a three fold dilution manner and the cell was incubated for 48 hours. The culture media in each well was removed and 100μ of 10% trichloroacetic acid was added thereto to be left alone at 4° C. for 1 hour and to fix the cells to the bottom of the plates. […] The cell plates were shaked with titer plate shaker (KOMA Orbital Shaker KE011, KOMABIOTech) for 10 mins to exude the staining solution and to determine the absorbance at 520 nm using by microplate spectrophotometer (Sunrise, TECAN).

[2] = tested on: HCT15 (human colon adenocarcinoma); test: SRB cytotoxicity test, HCT15; format: cell-based; conditions: Homo sapiens, HCT-15, 48 h, read-out: Cytotoxicity IC50, HCT15
Method: as §1, §2, §3

HPV16 PVs [3] = test: Virus inhibition test (in vitro), SEAP activity of 293TT cells infected with HPV pseudovirion; format: cell-based; conditions: Human papillomavirus 16, read-out: inhibitory activity from HPV16 PVs
Method: Prior to in vitro antiviral assay, 5×10^3 of 293TT cell was seeded on 96-well plate and incubated at 37° C. for 16 hours in 5% CO2 atmosphere. The culture media was removed and each extract was diluted to the concentration of 100 μg/ml or 50 μg/ml to distribute into each cell at the dose of 100 μl/cell. After treating with the extract for 16 hours, the culture media was removed and the cell was washed with PBS twice. The cell was infected by 106RLU/ml of HPV PVs at the dose of 100 μl/cell and incubated for 48 hours at 37° C. in 5% CO2 atmosphere. To determine the viral activity, the supernatant of the cell culture was used for determine the activity of secreted alkaline phosphatase (SEAP) using by Great EscAPE™ SEAP Chemiluminescence Kit (631738, Clontech, CA, USA). To determine the SEAP activity, relative light units (RLU) value was obtained using by Luminescence coulter (Micro beta triLux 1450, PerkinElmer, CT, USA) and the RLU values of the cell treated with the extract and untreated with the extract, were compared with each other. The decrease of SEAP activity was regarded as the inhibition effect against HPV PVs.
To determine the inhibitory effect on luciferase-comprising HPV virus contagion of the test samples prepared in Examples, following test was performed according to the method disclosed in the literature (Shaneyfelt et al., Virology Journal, 3:68, 2006, 1-11; Roden et al., J. Virol., 70, 1996, 5875-5883; Unckell et al., J. Virol., 71, 1997, 2934-2939; Touze et al., Nucleic Acids Research, 26, 1998, 1317-1323; Selinka et al., J. Virol., 77, 2003, 12961-12967; Klasse et al., Journal of General Virology, 83, 2002, 2091-2108)
5×10^3293TT cell was seeded on 96-well plate and incubate for 16 hours. 50 μg of test sample was mixed with the culture media in the concentration of 100 ug/ml and incubated for 16 hours. The media was washed with 100 μl of PBS twice and the cell was infected with 10^6RLU/ml of HPV pseudovirion at the dose of 100 μl/cell to incubate at 37° C., for 48 hours in 5% CO2 atmosphere.
5× lysis buffer in Great EscAPE™ SEAP Chemiluminescence Kit (631738, Clontech, CA, USA) was made to 1× and both of 45 μl of 1× lysis buffer and 15 μl of cell culture medium were added to 96-well plate (3912, Costar, NY, USA). 60 μl of the substrate in Great EscAPE™ SEAP Chemiluminescence kit was added thereto and the relative light units (RLU) value was obtained using by Luminescence coulter (Micro beta triLux 1450, PerkinElmer, CT, USA). The RLU values of the cell treated with the extract and untreated with the extract, were compared with each other and the decrease of SEAP activity was regarded as the inhibition effect against HPV PVs.

[4] = tested on: MES-SA/DX5 (multidrug resistant carcinoma subline of MES-SA); test: SRB cytotoxicity test, MES-SA/DX5; format: cell-based, human; conditions: Homo sapiens, MES-SA/Dx5, 48 h, read-out: Cytotoxicity IC50, MES-SA/DX5
Method: as §1, §2, §3

[5] = tested on: SK-OV-3 (human ovarian tumor); test: SRB cytotoxicity test, SK-OV-3; format: cell-based; conditions: Homo sapiens, SK-OV-3, 48 h, read-out: Cytotoxicity IC50, SK-OV-3
Method: as §1, §2, §3

[6] = tested on: A-549 (human adenocarcinoma of lung); test: SRB cytotoxicity test, A-549; format: cell-based; conditions: Homo sapiens, A549, 48 h, read-out: Cytotoxicity IC50, A-549
Method: as §1, §2, §3

[7] = tested on: SK-MEL-2 (human malignant melanoma); test: SRB cytotoxicity test, SK-MEL-2; format: cell-based; conditions: Homo sapiens, SK-MEL-2, 48 h, read-out: Cytotoxicity IC50, SK-MEL-2
Method: as §1, §2, §3

HPV16 PVs [8] = test: Virus inhibition test (in vitro), SEAP activity of 293TT cells infected with HPV pseudovirion; format: cell-based; conditions: Human papillomavirus 16, read-out: inhibitory activity on HPV16 PVs

SMILES: CC(C)c1ccc2c(c1)CC[C@H]1[C@](C)(C(=O)O)CCC[C@]21C [compound (i), dehydroabietic acid]
- IC50 [1]: 10.3 µg/mL (≈ 34.4 µM)
- IC50 [2]: 15.7 µg/mL (≈ 52.2 µM)
- inhibition at 50 µg/mL (HPV16 PVs [3]): 70 to 80%
- IC50 [4]: 12 µg/mL (≈ 40 µM)
- IC50 [5]: 17.3 µg/mL (≈ 57.5 µM)
- IC50 [6]: 13.4 µg/mL (≈ 44.7 µM)
- IC50 [7]: 13 µg/mL (≈ 43.3 µM)
- inhibition at 5 µg/mL (HPV16 PVs [8]): ~50%
